Measured values from US12291502B2, “Topoisomerase II-alpha inhibitors and methods of treating cancer using the same” (The Regents of the University of Colorado, priority 2019, dated 2025).
pEC50, pIC50: −log10 of the molar value. Where two headings read alike, the source gives them in different places.

How the values were obtained:
[1] = test system: vimentin promoter activity (VimPro-GFP) in SW620 cells; experiment: VimPro-GFP EMT reporter assay; conditions: Homo sapiens, SW-620, read-out: Vimentin Down-regulation EC50 (μM)
Protocol: VimPro-GFP and EcadPro-mCherry reporter assays. VimPiro-GFP: SW620 cells were first transduced with NucLight Red virus (Essen BioSciences) and selected with Zeocin at 200 μg/mL, and then transduced with pCDH-VimPro-GFP-EF1-puro virus and selected with puromycin at 4 μg/mL. The dual fluorescently labeled cells were plated and treated in 3D tumor organoid as described. Tumor organoid images were recorded every 2 hours over a 72 hours period using an incucyte ZOOM content imaging system (Essen BioSciences) or PerkinElmer Phenix imager (PerkinElmer).
Analogs were also assessed for their ability to modulate or reverse EMT using VimPro-GFP and EcadPro-RFP SW620 reporter cells cultured as tumor organoids, determining EC50 dose responses over 72 hours (Table 2).
VimPro-GFP and EcadPro-RFP reporter assays. Stable VimPro-GFP or EcadPro-RFP SW620 reporter cells were generated using pCDH-VimPro-GFP-EF1-puro virus or pCDH-EcadPro-mCherry-EF1-puro virus as previously reported. […] Transduced cells were selected with puromycin at 2 μg/mL. The stable fluorescent labeled reporter cells were then used to generate tumor organoids as described. Tumor organoids were then treated with TOP2A inhibitors at 10 μM for an additional 72 h. Following treatment, tumor organoids were stained with 16 μM of Hoechst 33342 for 1 h, which functions as a nuclear stain for imaging segmentation. Images were taken with a 5× air objective. Z stacks were set at 20 μm apart for a total of 7 layers. Imaging analysis was performed using an Opera Phenix high content screening (HCS) system and Harmony high-content imaging and analysis software interface (PerkinElmer, MA). Nuclei were identified with Hoechst 33342 stain within each layer, and cells were found with either GFP or mCherry channel. The intensities of each fluorescence channel within the cells were calculated and thresholds were set based on the background intensities. Percentages of GFP or mCherry positive cells were calculated and normalized to the DMSO treated group.
VimPro-GFP and EcadPro-RFP reporter assays. Stable VimPro-GFP or EcadPro-RFP SW620 reporter cells were generated using pCDH-VimPro-GFP-EF1-puro virus or pCDH-EcadPro-mCherry-EF1-puro virus as previously reported. […] Transduced cells were selected with puromycin at 2 μg/mL. The stable fluorescent labeled reporter cells were then used to generate tumor organoids as described. Tumor organoids were then treated with TOP2A inhibitors at 10 μM for an additional 72 h. Following treatment, tumor organoids were stained with 16 μM of Hoechst 33342 for 1 h, which functions as a nuclear stain for imaging segmentation. Images were taken with a 5× air objective.

[2] = target: T1, Human TOP2A (Homo sapiens, UniProt P11388); experiment: TOP2A DNA decatenation assay (kDNA, agarose gel); assay type: biochemical; conditions: for TOP2A inhibition, result in words: decatenation screen at 30 μM
T1 construct: purchased TopoGEN (Buena Vista, CO)
Protocol: Inhibition of TOP2A activity. Human TOP2A, kDNA, and assay buffers were obtained from TopoGEN (Buena Vista, CO). The synthesized compounds were screened for their TOP2A inhibitory activity by the intensity of DNA decatenation bands on a DNA gel when compared to the vehicle. Compounds were initially incubated with TOP2A (3 U/reaction) for 20 min at a 30 μM and 1.2% DMSO concentration in a 37° C. incubator without CO2.
The decatenation reaction was initiated immediately after by adding 2 mM ATP and 35 ng/reaction of kDNA, then incubated for 1 hour in a 37° C. water bath. The samples were loaded into a 0.8% agarose gel in 1× Tris-Borate-EDTA (TBE) at a 0.2 μg/mL ethidium bromide concentration and allowed to run in an electrophoretic chamber for 1 hour at 100V. Compounds with the highest inhibitory activity were selected for 2-fold serial dilution dose-response assays (58.6 nM-30 μM). The dose-response assays followed the same protocol with the exception of 4 U/reaction of TOP2A.
Inhibition studies of TOP2A and observed structure activity relationships (SAR). DNA catenation/decatenation or linking/unlinking of DNA is one of the main TOP2A functions essential for regulating DNA topology, and this is ATP dependent. […] Thus, as a starting point, the synthesized analogs were screened against TOP2A-dependent decatenation using 30 μM fixed concentrations, and the DNA from reactions were resolved on 0.8% agarose gels containing ethidium bromide.
Moreover, these studies provided interesting SAR, which shed light on the potential lead drug target binding interactions and affinity, biological activity, and future drug design optimization with this unique class of TOP2A inhibitors.
(§1) TOP2A decatenation assay. Human TOP2A, kDNA, and assay buffers were obtained from TopoGEN (Buena Vista, CO). The synthesized compounds were screened for their TOP2A inhibitory activity by the intensity of DNA decatenation bands on a DNA gel when compared to the vehicle. Compounds were initially incubated with TOP2A (3 U/reaction) for 20 min at a 30 μM and 1.2% DMSO concentration in a 37° C. incubator without CO2. The decatenation reaction was initiated immediately after by adding 2 mM ATP and 35 ng/reaction of kDNA, then incubated for 1 h in a 37° C. water bath. The samples were loaded into a 0.8% agarose gel in 1× Tris-Borate-EDTA (TBE) at a 0.2 μg/mL ethidium bromide concentration and allowed to run in an electrophoretic chamber for 1 h at 100V. Compounds with the highest inhibitory activity were selected for 2-fold serial dilution dose-response assays (58.6 nM-30 μM). The dose-response assays followed the same protocol with the exception of 4 U/reaction of TOP2A,
as §1, with “assays (53.6” for “assays (58.6”, “of TOP2A.” for “of TOP2A,”

[3] = test system: E-cadherin promoter activity (EcadPro-RFP) in SW620 cells; experiment: EcadPro-RFP (mCherry) EMT reporter assay; assay type: cell-based; conditions: Homo sapiens, SW-620; Table 3; SW620 Cells; read-out: E-cadherin Up-regulation EC50
Description: (§2) VimPro-GFP and EcadPro-RFP reporter assays. […] 35(38): p. 4990-9.]
as §2

[4] = test system: TOP2A-dependent TCF-transcription in SW620-TOP tumor organoids; experiment: TCF (TOPflash) reporter assay in 3D tumor organoids; assay type: cell-based; conditions: SW620-TOP tumor organoids, 72 hours; read-out: IC50 inhibition of TCF-transcription
Protocol: TCF reporter assay in 3D Tumor organoid. Stable engineered cells containing pCDH-TOPflash-luc-EF1-puro were used to generate tumor organoid arrayed in 96-well plates and treated for 72 hours. One-Glo™ luciferase reagent and CellTiter-Glo™ 3D cell viability reagent (Promega) were used to determine the TCF reporter activity in viable cells.
After characterizing 3 and 7 as TOP2A ATP-competitive inhibitors, these compounds were next tested for their ability to inhibit TOP2A-dependent TCF-transcription using the well characterized TOPflash (TOP) luminescent reporter, which was used to generate a stably transduced SW620-TOP reporter cells as described previously (Zhou, et al., Oncogene 2016, 35:4990-9). These cells were used to generate single 3D tumor organoids (700 μm in diameter) uniformly arrayed in 96-well plates, which mimic aspects of tumor function observed in vivo. […] Like neo, the mode of action of compounds 3 and 7 also results in significant antitumor activity (FIGS. 3E-3H). […] In other words, the activity of 3 and 7 is long lasting, suppressing CSC stemness and related tumorigenicity. EMT is a major driving force promoting tumor cell invasion and metastasis. […] Tumor organoids were dissociated, and viable cells were washed and plated into the top chamber of 96-well invasion plate coated with Matrigel and incubated for an additional 72 hours without adding any additional compound. […] Taken together, the biological activity of 3 and 7 is consistent with the activity of neo, inhibiting TOP2A-dependent TCF-transcription that in turn reverses EMT while inhibiting the associated tumorigenic properties of mCRC.
A similar trend in IC50 values was observed compared to TOP2A enzyme studies, further supporting our proposed mechanism of action as inhibition of TOP2A-dependent TCF-transcription.
3D Tumor organoid TOPflash reporter assay. […] 35(38): p. 4990-9.] were used to generate tumor organoids arrayed in 96-well plates and treated for 72 h with TOP2A inhibitors. One-Glo™ luciferase reagent and CellTiter-Glo™ 3D cell viability reagent (Promega, WI) were used to determine the TCF reporter activity in viable cells. Briefly, reagents were added to the spheroids at 1:1 ratio (v:v) and the plates were placed on an orbital shaker (300 rpm) for 10 min at room temperature before the luminescence was read with Envision plate reader (PerkinElmer, MA). TCF reporter activity was normalized to organoid viability and inhibitors treated conditions were normalized to DMSO treated controls.

[5] = Table 3, 30 μM, read-out: % TOP2A Decatenation inhibition (30 μM)
[6] = Table 3, read-out: TOP2A Inhibition IC50
[7] = Table 1, decatenation, 30 μM fixed concentration
[8] = 1 h, Table 1, decatenation, 30 μM fixed concentration, read-out: % Inhibition TOP2A (30 μM)
[9] = Table 1, decatenation dose response, read-out: % Inhibition TOP2A (IC50 Values)

T1 sequence (P11388 whole entry): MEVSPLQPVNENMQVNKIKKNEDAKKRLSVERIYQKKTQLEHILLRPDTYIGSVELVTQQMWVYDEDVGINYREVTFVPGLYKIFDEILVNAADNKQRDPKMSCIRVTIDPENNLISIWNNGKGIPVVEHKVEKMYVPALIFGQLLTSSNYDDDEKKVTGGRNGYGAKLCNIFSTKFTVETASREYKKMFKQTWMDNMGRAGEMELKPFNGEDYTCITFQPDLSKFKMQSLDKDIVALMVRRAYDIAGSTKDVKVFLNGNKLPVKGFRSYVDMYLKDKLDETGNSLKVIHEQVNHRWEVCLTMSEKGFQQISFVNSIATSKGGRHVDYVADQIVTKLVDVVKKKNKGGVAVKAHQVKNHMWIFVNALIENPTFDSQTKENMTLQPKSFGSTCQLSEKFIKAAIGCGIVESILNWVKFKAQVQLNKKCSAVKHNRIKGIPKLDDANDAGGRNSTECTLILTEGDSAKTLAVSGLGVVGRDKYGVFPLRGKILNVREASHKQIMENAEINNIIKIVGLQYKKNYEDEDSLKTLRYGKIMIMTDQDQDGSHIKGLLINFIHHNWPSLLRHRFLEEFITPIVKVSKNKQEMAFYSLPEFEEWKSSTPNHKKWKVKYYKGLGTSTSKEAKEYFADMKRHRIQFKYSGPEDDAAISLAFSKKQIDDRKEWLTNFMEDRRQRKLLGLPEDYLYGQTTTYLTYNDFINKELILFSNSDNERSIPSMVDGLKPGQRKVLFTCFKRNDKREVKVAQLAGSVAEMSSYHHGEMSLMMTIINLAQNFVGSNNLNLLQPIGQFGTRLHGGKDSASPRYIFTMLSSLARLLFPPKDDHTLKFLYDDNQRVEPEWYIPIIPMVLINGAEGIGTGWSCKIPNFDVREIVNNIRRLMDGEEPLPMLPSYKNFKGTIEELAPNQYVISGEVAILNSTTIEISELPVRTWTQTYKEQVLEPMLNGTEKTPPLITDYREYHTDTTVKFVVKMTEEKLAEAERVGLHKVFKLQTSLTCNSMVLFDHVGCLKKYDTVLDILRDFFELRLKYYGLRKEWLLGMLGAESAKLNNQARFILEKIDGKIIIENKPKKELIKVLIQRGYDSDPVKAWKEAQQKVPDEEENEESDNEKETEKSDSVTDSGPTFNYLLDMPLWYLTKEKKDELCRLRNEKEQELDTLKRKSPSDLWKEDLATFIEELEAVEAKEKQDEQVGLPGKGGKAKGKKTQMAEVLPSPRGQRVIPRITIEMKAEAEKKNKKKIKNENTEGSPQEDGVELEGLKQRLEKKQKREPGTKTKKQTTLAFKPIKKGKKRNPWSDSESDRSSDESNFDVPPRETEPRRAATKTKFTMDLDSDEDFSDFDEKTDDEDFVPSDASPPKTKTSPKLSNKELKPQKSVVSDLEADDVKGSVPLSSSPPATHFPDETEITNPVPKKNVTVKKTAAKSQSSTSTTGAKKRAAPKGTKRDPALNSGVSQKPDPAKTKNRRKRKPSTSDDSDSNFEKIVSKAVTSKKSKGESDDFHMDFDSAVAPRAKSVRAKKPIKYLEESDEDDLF

SMILES	EC50 [1]	pEC50 [3]	% Inhibition TOP2A (30 μM) [2, 7]	TOP2A inhibition, result in words [2]	also measured
CC(=O)Nc1ccc2c(NC3CCCCC3)ccnc2c1O [AA-29-216]	20.6 µM	4.75	–	–	inhibition at 30 µM [2, 5]: 100%; pIC50 [2, 6]: 6.54
CC(=O)Nc1ccc2c(-c3ccc(F)cc3)ccnc2c1O [Analog 30]	–	–	1.0%	the activity is lost	–
CC(=O)Nc1ccc2c(Nc3ccc4[nH]ccc4c3)ccnc2c1O [AA-29-136]	4.1 µM	5.08	–	–	inhibition at 30 µM [2, 5]: 90%
O=C(CCN1CCOCC1)Nc1ccc2c(NC3CCCCC3)ccnc2c1O [AA-34-180]	13 µM	4.18	–	–	inhibition at 30 µM [2, 5]: 0%
CC(=O)Nc1ccc2c(-c3cccc(O)c3)ccnc2c1O [Analog 33]	–	–	0.0%	–	–
CC(=O)Nc1ccc2c(Nc3ccc(C(F)(F)F)cc3)ccnc2c1O [AA-29-158]	1.36 µM	4.19	–	–	–
CC(=O)Nc1ccc2c(-c3cc4ccccc4s3)ccnc2c1O [Analog 54]	–	–	0.0%	inhibition was lost	–
CC(=O)Nc1ccc2c(Nc3ccc4[nH]c(C)cc4c3)ccnc2c1O [AA-29-155]	9.56 µM	3.89	–	–	–
CC(=O)Nc1ccc2c(Nc3ccc(O)cc3F)ccnc2c1O [AA-29-172]	45.9 µM	4.23	–	–	–
CC(=O)Nc1ccc2c(NC3CCCCCC3)ccnc2c1O [AA-34-130]	59 µM	4.44	–	–	inhibition at 30 µM [2, 5]: 100%; pIC50 [2, 6]: 5.82
CC(=O)Nc1ccc2c(Nc3cccc(C(F)(F)F)c3)ccnc2c1O [AA-29-157]	29.9 µM	3.75	–	–	–
CC(C)(C)C(=O)Nc1ccc2c(-c3cc(F)ccc3O)ccnc2c1O [Analog 40]	–	–	0.0%	–	–
CC(=O)Nc1ccc2c(-c3cccc(F)c3)ccnc2c1O [Analog 29]	–	–	–	potent inhibition of TOP2A activity	inhibition at 30 µM [2, 8]: 100%; pIC50 [2, 9]: 5.11
CC(=O)Nc1ccc2c(Nc3cc(O)ccc3F)ccnc2c1O [AA-29-171]	26.6 µM	3.86	–	–	–
CC(=O)Nc1ccc2c(NC3CCCC3)ccnc2c1O [AA-34-131]	23 µM	4.67	–	–	inhibition at 30 µM [2, 5]: 92%; pIC50 [2, 6]: 5.67
CC(=O)Nc1ccc2c(NC3CCC3)ccnc2c1O [AA-34-132]	27.7 µM	4.00	–	–	inhibition at 30 µM [2, 5]: 94%; pIC50 [2, 6]: 5.18
CC(=O)Nc1ccc2c(-c3cccs3)ccnc2c1O [Analog 57]	–	–	–	–	pIC50 [4]: 5.15; inhibition at 30 µM [2, 8]: 100%; pIC50 [2, 9]: 5.64
COc1ccc(F)cc1-c1ccnc2c(OC)c(NC(C)=O)ccc12 [Analog 6]	–	–	0.0%	–	–

SMILES	EC50 [1]	pEC50 [3]	% Inhibition TOP2A (30 μM) [2, 7]	TOP2A inhibition, result in words [2]	also measured
CC(=O)Nc1ccc2c(-c3cc(C(F)(F)F)ccc3O)ccnc2c1O [Analog 37]	–	–	–	excellent inhibitory activity	inhibition at 30 µM [2, 8]: 100%; pIC50 [2, 9]: 5.05
O=C(CN1CCOCC1)Nc1ccc2c(-c3cc4ccccc4o3)ccnc2c1O [Analog 60]	–	–	–	–	inhibition at 30 µM [2, 8]: 100%; pIC50 [2, 9]: 5.30
CC(=O)Nc1ccc2c(-c3ccco3)ccnc2c1O [Analog 55]	–	–	0.0%	significant loss of activity	–
O=C(CN1CCOCC1)Nc1ccc2c(NC3CCCCC3)ccnc2c1O [AA-34-171]	17.5 µM	4.32	–	–	inhibition at 30 µM [2, 5]: 62%
CC(=O)Nc1ccc2c(Nc3cccc4[nH]ccc34)ccnc2c1O [AA-29-147]	14.8 µM	3.84	–	–	–
CC(=O)Nc1ccccc1-c1ccnc2c(O)c(NC(C)=O)ccc12 [Analog 34]	–	–	1.0%	significant loss of activity	–
CC(=O)Nc1ccc2c(-c3ccsc3)ccnc2c1O [Analog 58]	–	–	–	improves activity compared to the 3-furanyl analog 56	inhibition at 30 µM [2, 8]: 92%; pIC50 [2, 9]: 5.30
COc1c(NC(C)=O)ccc2c(-c3cc4ccccc4s3)ccnc12 [Analog 45]	–	–	–	–	pIC50 [4]: 4.97
CC(=O)Nc1ccccc1-c1ccnc2c(O)c(NC(=O)CCN3CCOCC3)ccc12 [Analog 43]	–	–	1.0%	–	–
CC(=O)Nc1ccc2c(-c3ccc(C(F)(F)F)cc3)ccnc2c1O [Analog 32]	–	–	–	excellent inhibitory activity	inhibition at 30 µM [2, 8]: 97%; pIC50 [2, 9]: 6.15
CC(=O)Nc1ccc2c(-c3ccccc3)ccnc2c1O [Analog 28]	–	–	25.0%	–	–
CC(=O)Nc1ccc2c(-c3cc(Cl)ccc3O)ccnc2c1O [Analog 38]	–	–	0.0%	no activity was observed	–
CC(=O)Nc1ccc2c(Nc3ccccc3)ccnc2c1O [AA-29-148]	25.9 µM	5.12	–	–	inhibition at 30 µM [2, 5]: 100%
CC(=O)Nc1ccc2c(-c3cncnc3)ccnc2c1O [Analog 59]	–	–	0.0%	–	–
CC(=O)Nc1cccc(-c2ccnc3c(O)c(NC(C)=O)ccc23)c1 [Analog 36]	–	–	3.0%	significant loss of activity	–
CC(=O)Nc1ccc2c(-c3cccc(C(F)(F)F)c3)ccnc2c1O [Analog 31]	–	–	97.0%	excellent inhibitory activity	pIC50 [2, 9]: 5.47
CC(=O)Nc1ccc2c(Nc3cccc(F)c3)ccnc2c1O [AA-29-146]	7.4 µM	5.01	–	–	inhibition at 30 µM [2, 5]: 100%
